{"source": "patent US5962487A", "about": "“Antipicornaviral compounds and methods for their use and preparation” (Agouron Pharmaceuticals, Inc., priority 1997, dated 1999)", "key": {"CVB-3": {"system": "CVB-3", "assay": "Anticoxsackieviral HI-HeLa Cell Culture Assay, CVB-3", "type": "cell-based, Coxsackie strain B-3", "protocol": "(§1) The ability of compounds to protect cells against CVA-21 or CVB-3 infection was measured by the XTT dye reduction method. Briefly, HI-HeLa cells were infected with CVA-21 or CVB-3 at a multiplicity of infection (m.o.i.) of 0.05 (CVA-21) and 0.08 (CVB-3) or mock-infected with medium only. Infected or uninfected cells were resuspended at 4×10^4 cells per mL and incubated with appropriate concentrations of drug. One day later, XTT/PMS was added to test plates, and the amount of formazan produced was quantified spectrophotometrically at 450/650 nm. The EC50 was calculated as the concentration of drug that increased the percentage of formazan production in drug-treated, virus-infected cells to 50% of that produced by drug-free, uninfected cells. The 50% cytotoxic dose (CC50) was calculated as the concentration of drug that decreased the percentage of formazan produced in drug-treated, uninfected cells to 50% of that produced in drug-free, uninfected cells. The therapeutic index (TI) was calculated by dividing the CC50 by the EC50.\n(§2) The Coxsackie strains A-21 (CVA-21) and B-3 (CVB-3) were purchased from American Type Culture Collection (ATCC). Virus stocks were propagated and antiviral assays were performed in HI-HeLa cells (ATCC). Cells were grown in Minimal Essential Medium with 10% fetal bovine serum."}, "in vitro [1]": {"assay": "in vitro", "type": "cell-based", "conditions": "human, hi-hela cells", "how_it_was_run": "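HI-HeLa cells infected with HRV-14 at m.o.i. 0.13 or mock-infected, incubated with compounds for two days; XTT/PMS formazan read at 450/650 nm. EC50 as concentration restoring formazan to 50% of mock-infected level; CC50 from mock-infected cells; TI = CC50/EC50.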"}, "in vitro [2]": {"assay": "in vitro", "type": "cell-based", "conditions": "human, hi-hela cells", "protocol": "as §1, §2", "remark": "listed apart in the source"}, "ENT-70": {"system": "ENT-70", "assay": "Enterovirus-70 MRC5 Cell Culture Assay", "type": "cell-based, Enterovirus strain 70", "protocol": "The Echovirus strain 11 (ECHO-11) and Enterovirus strain 70 (ENT-70) were purchased from American Type Culture Collection (ATCC). Virus stocks were propagated and antiviral assays were performed in MRC5 cells (ATCC). Cells were grown in Minimal Essential Medium with 10% fetal bovine serum.\nas §1, with “ECHO-11” for “CVA-21”, “ENT-70” for “CVB-3”, “MRC5” for “HI-HeLa”, “0.0013 (ECHO-11)” for “0.05 (CVA-21)”, “0.0017 (ENT-70)” for “0.08 (CVB-3)”, “2×10^4” for “4×10^4”"}, "[3]": {"biological_target": "T1, Rhinovirus 3C protease (RVP) serotype 2 (Human rhinovirus 2, UniProt P04936)", "T1 construct": "Recombinant Rhinovirus 3C proteases from serotypes 14, 16, 2 or 89 were prepared; made in house", "T1 sequence (P04936 1508-1690)": "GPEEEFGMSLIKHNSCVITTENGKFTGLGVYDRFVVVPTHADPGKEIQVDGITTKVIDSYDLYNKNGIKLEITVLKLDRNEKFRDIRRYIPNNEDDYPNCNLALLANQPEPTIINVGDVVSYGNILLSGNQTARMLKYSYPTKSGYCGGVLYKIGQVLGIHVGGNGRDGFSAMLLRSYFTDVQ", "assay": "Inhibition of Rhinovirus Protease, serotype 2 (FRET assay)", "type": "biochemical", "conditions": "enzyme start experiments, read-out: kobs/I", "protocol": "(§3) Stock solutions (50 mM, in DMSO) of various compounds were prepared; dilutions were in the same solvent. Recombinant Rhinovirus 3C proteases from serotypes 14, 16, 2 or 89 were prepared by the following standard chromatographic procedures: (1) ion exchange using Q Sepharose Fast Flow from Pharmacia; (2) affinity chromatography using Affi-Gel Blue from Biorad; and (3) sizing using Sephadex G-100 from Pharmacia. Assays contained 2% DMSO, 50 mM tris pH 7.6, 1 mM EDTA, a compound at the indicated concentrations, approximately 1 μM substrate, and 50-100 nM protease. For Ki determinations, the compound and the enzyme were preincubated for 10 minutes at 30° C. prior to addition of the substrate (substrate start). The kobs/I values were obtained from reactions initiated by addition of enzyme rather than substrate. RVP activity is measured in the fluorescence resonance energy transfer assay. The substrate was (N-terminal) DABCYL-(Gly-Arg-Ala-Val-Phe-Gln-Gly-Pro-Val-Gly)-EDANS. In the uncleaved peptide, the EDANS fluorescence was quenched by the proximal DABCYL moiety. When the peptide was cleaved, the quenching was relieved, and activity was measured as an increase in fluorescence signal.\n(§4) In the above table, all data is for RVP serotype-14 unless otherwise noted in parentheses. All strains of human rhinovirus (HRV) were purchased from American Type Culture Collection (ATCC), except for serotype 14, which was produced from the infectious cDNA clone constructed and supplied to us by Dr. Roland Rueckert at the Institute for Molecular Virology, University of Wisconsin, Madison, Wis. The column designated INHIB represents the percent inhibition, with the concentration of the compound in μM indicated in parentheses, unless Ki was assigned as designated by (Ki), at 10 minute preincubation with 50 nM RVP prior to addition of substrate was used. The data in the column designated kobs/I was measured from progress curves in enzyme start experiments."}, "[4]": {"biological_target": "T2, Rhinovirus 3C protease (RVP) serotype 16 (Human rhinovirus 16, UniProt Q82122)", "T2 construct": "Recombinant Rhinovirus 3C proteases from serotypes 14, 16, 2 or 89 were prepared; made in house", "T2 sequence (Q82122 1511-1693)": "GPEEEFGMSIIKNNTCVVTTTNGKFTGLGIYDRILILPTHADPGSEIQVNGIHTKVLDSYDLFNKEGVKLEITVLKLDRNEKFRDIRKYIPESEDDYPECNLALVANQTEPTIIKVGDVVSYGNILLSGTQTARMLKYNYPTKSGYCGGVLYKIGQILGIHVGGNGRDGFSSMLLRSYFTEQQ", "assay": "Inhibition of Rhinovirus Protease, serotype 16 (FRET assay)", "type": "biochemical", "conditions": "enzyme start experiments, read-out: kobs/I", "protocol": "as §3, §4"}, "CVA-21": {"system": "CVA-21", "assay": "Anticoxsackieviral HI-HeLa Cell Culture Assay, CVA-21", "type": "cell-based, Coxsackie strain A-21", "protocol": "as §1, §2"}}, "data": [{"smiles": "CCOC(=O)/C=C/[C@H](CCC(N)=O)NC(=O)[C@H](Cc1ccccc1)N(C)C(=O)[C@H](CC(C)C)NC(=O)OCc1ccccc1", "note": "[Compound 2, Ethyl-3-(CBZ-L-Leu-L-N-Me-Phe-L-Gln)-E-Propenoate]", "values": [{"measurement": "EC50", "setting": "CVB-3; 24 h, CVB-3 infection of Hi-HeLa cells, XTT, one day", "result": 2, "unit": "µM"}, {"measurement": "TI", "setting": "CVB-3; CC50/EC50, CVB-3", "result": 28}, {"measurement": "CC50 at 48 h", "setting": "in vitro [1]", "result": 56, "unit": "µM"}, {"measurement": "CC50 at 24 h", "setting": "in vitro [2]", "result": 56, "unit": "µM"}, {"measurement": "TI", "setting": "ENT-70; CC50/EC50, ENT-70, 1440 min", "result": 93}, {"measurement": "EC50", "setting": "ENT-70; Enterovirus, 24 h, ENT-70 infection of MRC5 cells, XTT, one day", "result": 0.6, "unit": "µM"}, {"measurement": "kinact/KI", "setting": "[3]", "result": 617, "unit": "M⁻¹ s⁻¹"}, {"measurement": "kinact/KI", "setting": "[4]", "result": 1040, "unit": "M⁻¹ s⁻¹"}, {"measurement": "EC50", "setting": "CVA-21; 24 h, CVA-21 infection of Hi-HeLa cells, XTT, one day", "result": 3.3, "unit": "µM"}, {"measurement": "TI", "setting": "CVA-21; CC50/EC50, CVA-21", "result": 17}]}]}
